Data set [1] deals with canine heartworm microfilariae. Briefly: Effects on canine heartworm (motility of microfilariae). Also on record: key: At least two-thirds of the heartworms died; B: Substantially all the heartworms were affected in some way, or at least one-third died; C: No influence, or less than one-third of the heartworms died. Particulars: 3.13 ppm in RPMI1640 liquid culture medium, 37° C., observed for 48 hours. The method, then: The activities of the compounds were evaluated based on changes in the motility of microfilariae in canine heartworm. The respective compounds were dissolved in a RPMI1640 liquid culture medium to a concentration of 3.13 ppm, following which about 20 canine heartworm microfilariae were placed in each culture fluid and cultured at 37° C.
Criteria A: At least two-thirds of the heartworms died • B: Substantially all the heartworms were affected in some way, or at least one-third died • C: No influence, or less than one-third of the heartworms died

The test system of data set [2] is white-backed rice planthopper. Briefly: White-backed rice planthopper control test (foliar application). Particulars: 100 ppm foliar application, second-instar larvae on rice seedlings, 4 days after release. The class given is in vivo. The method, then:
(§1) Rice seedlings grown in pots were subjected to the foliar application of solutions of the inventive compounds at a predetermined concentration prepared to 50% acetone/water (containing 0.05% Tween 20). The treated seedlings were air dried, following which second-instar larvae were released onto the seedlings. The seedlings and larvae were then held in an incubation chamber at 25° C. (16-hour period of light, 8-hour dark period). Four days after released, the numbers of live and dead insects were counted, and the mortality was calculated from the following formula. This was a two-replication test. Mortality (%)=[number of dead insects/(number of live insects+number of dead insects)]×100

A further data set relates to diamondback moth. Briefly: whole plant or invertebrate. Particulars: Plutella xylostella, foliar. The class given is in vivo. Summed up: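 Cabbage leaf discs sprayed with compound in 50% acetone/water with 0.05% Tween 20, air-dried, then infested with second-instar larvae. Held at 25 °C under 16 h light/8 h dark; mortality from dead/(live+dead) counts after 3 days, two replicates.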

Data set [3] has as its system small brown planthopper. Kind of data set: whole plant or invertebrate. The class given is in vivo. Particulars: Laodelphax striatellus, 72 h. The gist of the method: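 Rice seedlings in pots soil-drenched with compound at a set concentration in 10% acetone/water; ten second-instar larvae released per seedling 3 days later. Held at 25° C. (16 h light/8 h dark) and scored live/dead 3 days after release. Mortality (%) = dead/(live+dead)×100; two replications.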

In a further data set the test system is western flower thrips. Briefly: whole plant or invertebrate. The class given is in vivo. Particulars: Frankliniella occidentalis, foliar. Summed up:
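Bean leaf discs sprayed with compound in 50% acetone/water with 0.05% Tween 20, air dried, then infested with first-instar larvae. Held at 25° C under 16 h light/8 h dark; live and dead counted after 3 days to give % mortality, two replicates.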

The subject of data set [4] is small brown planthopper. Kind of data set: whole plant or invertebrate. Particulars: Laodelphax striatellus, foliar. The class given is in vivo. The protocol:
as §1, with “Three” for “Four”

A further data set concerns cotton aphid. Kind of data set: whole plant or invertebrate. The class given is in vivo. Particulars: Aphis gossypii, foliar. Summed up:
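Cucumber leaf discs (2.0 cm) sprayed with compound in 50% acetone/water with 0.05% Tween 20, air-dried, then infested with first-instar cotton aphids. Held at 25 °C under 16 h light/8 h dark; mortality counted after 3 days, two replicates.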

The test system of data set [5] is small brown planthopper. Briefly: whole plant or invertebrate. In kind it is in vivo. Particulars: Laodelphax striatellus, in Triticum aestivum, 96 h. Summed up:
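Roots of 48-h wheat seedlings took up compound in 10% acetone/water for 72 h, then ten second-instar larvae were released per seedling and held at 25 °C (16 h light/8 h dark). Mortality counted four days after release; two replications.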

A further data set relates to common cutworm. Briefly: whole plant or invertebrate. In kind it is in vivo. Particulars: for Insecticidal effects (mortality), common cutworm third-instar larvae: foliar application. Summed up:
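Cabbage leaf discs (5.0 cm) sprayed with compound at a set concentration in 50% acetone/water with 0.05% Tween 20, air dried, then infested with third-instar larvae. Held at 25° C., 16 h light/8 h dark; dead and live larvae counted after 3 days, two replicates, mortality (%) = dead/(live+dead)×100.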

The test system of a further data set is rice leaf bug. Briefly: whole plant or invertebrate. In kind it is in vivo. Particulars: foliar, 72 h. The protocol:
The treated seedlings were air-dried, then each was placed in a glass cylinder and two second-instar rice leaf bug larvae were released within the same glass cylinder. Following release of the insects, the tube was capped and held in an incubation chamber at 25° C. (16-hour period of light, 8-hour dark period). […] Three days after released, the numbers of live and dead insects were counted, and the mortality was calculated from the following formula. Mortality (%)=[number of dead insects/(number of live insects+number of dead insects)]×100

The next data set deals with greenhouse whitefly. Kind of data set: whole plant or invertebrate. In kind it is in vivo. Particulars: Cucumis sativus, foliar, 336 h. The method, then: Adult greenhouse whiteflies were released onto cucumber plants grown in pots, and allowed to laid eggs overnight. One day after the start of oviposition, the adults were removed, and the plants and eggs were held in an incubation chamber at 25° C. (16-hour period of light, 8-hour dark period). Three days after the end of oviposition, leaf discs 2.0 cm in diameter were cut from the cucumber plants and, after confirming oviposition thereon, the leaf discs were sprayed with solutions of the inventive compounds at a predetermined concentration prepared to 50% acetone/water (containing 0.05% Tween 20). After spraying, the treated leaf discs were held in an incubation chamber at 25° C. (16-hour period of light, 8-hour dark period). Fourteen days after spraying, the numbers of live and dead insects were counted, and the mortality was calculated from the following formula. This was a two-replication test. Mortality (%)=[(number of oviposited eggs−number of live insects)/number of oviposited eggs]×100

Setting [6] is: read-out: Insecticidal effects (mortality), diamondback moth second-instar larvae.
Setting [7] is: soil, read-out: Insecticidal effects (mortality), small brown planthopper second-instar larvae.
Setting [8] is: read-out: Insecticidal effects (mortality), western flower thrips first-instar larvae.
Where [9] appears, read: read-out: Insecticidal effects (mortality), small brown planthopper second-instar larvae.
The mark [10] stands for this setting: read-out: Insecticidal effects (mortality), cotton aphid first-instar larvae.

Where two headings read alike, the source gives them in different places.

As to `CSCCN(C#N)Cc1ccc(Cl)nc1` [Compound 1, 2-chloro-5-[N-cyano-N-(2-methylthioethyl)]aminomethylpyridine], in [1], the “Microfilaricidal effect (motility rating)” value was “B”. Further, in data set [2], the Mortality result is given as “at least 80%”.

`O=C(N=c1ccccn1Cc1ccc(F)nc1)C(F)(F)F` [Compound 229, N-[1-((6-fluoropyridin-3-yl)methyl)pyridin-2(1H)-ylidene]-2,2,2-trifluoroacetamide]: the mortality (usually the share of the test organisms that died) at 20 ppm with diamondback moth (setting [6]) was 40%; in the data set on cotton aphid (setting [10]), 100%; in the data set on cotton aphid (in Cucumis sativus, 72 h) it was not below 80%. Moreover, the mortality at 100 ppm in the data set on diamondback moth (setting [6]) is 100%; in the data set with diamondback moth (in Brassica oleracea, 72 h), not below 80%; in the data set with western flower thrips (setting [8]), 60%; in the data set with small brown planthopper [4] (in Oryza sativa, 72 h), not below 80%; in the data set with cotton aphid (setting [10]), 100%; in the data set on cotton aphid (in Cucumis sativus, 72 h), not below 80%. The same compound registered a mortality at 100 ppm with greenhouse whitefly not below 80%. Also, the mortality at 500 ppm in the data set with diamondback moth (setting [6]) was 100%; with diamondback moth (in Brassica oleracea, 72 h), not below 80%; in the data set with western flower thrips (72 h) it was not below 80%; in the data set with western flower thrips (setting [8]) it was 100%; in the data set with cotton aphid (setting [10]), 100%; with cotton aphid (in Cucumis sativus, 72 h) it was not below 80%. The compound also registered a mortality at 500 ppm with common cutworm (foliar, 72 h) not below 80%. Further, the pest or weed control at 0.005 mg/pot in the data set with small brown planthopper [3] (rice soil drenching, 0.005 mg/pot (Table 13), read-out: Small brown planthopper (rice soil drenching), effect) turned out to be 30%. For the same compound, the pest or weed control at 0.01 mg/pot in the data set on small brown planthopper [3] (rice soil drenching, 0.01 mg/pot (Table 13), read-out: Small brown planthopper (rice soil drenching), effect) turned out to be 100%. The pest or weed control at 0.05 mg/pot with small brown planthopper [3] (rice soil drenching, 0.05 mg/pot (Table 13), read-out: Small brown planthopper (rice soil drenching), effect) was 100%. This compound also showed a mortality at 0.05 mg/seedling in the data set on small brown planthopper [3] (soil) not below 80%. In addition, the mortality at 0.005 mg/pot with small brown planthopper [3] (setting [7]) was 30%. The mortality at 0.01 mg/pot with small brown planthopper [3] (setting [7]) came to 100%. The mortality at 0.05 mg/pot in the data set with small brown planthopper [3] (setting [7]) stood at 100%. The mortality at 5 ppm in the data set with small brown planthopper [4] (setting [9]) and with cotton aphid (setting [10]) was 95% throughout. Moreover, in the data set with cotton aphid (setting [10]), the mortality at 1.25 ppm came to 80%. Also, in the data set on small brown planthopper [5], the mortality at 20 µg/seedling is not below 80%. In the data set with small brown planthopper [5] (setting [9]), the mortality at 0.063 mg/seedling worked out at 25%. Besides, in the data set on small brown planthopper [5] (setting [9]), the mortality at 0.25 mg/seedling was 75%. The mortality at 0.5 mg/seedling with small brown planthopper [5] (setting [9]) worked out at 100%. For the same compound, the mortality at 2 mg/seedling in the data set with small brown planthopper [5] (setting [9]) was 100%. Further, the “Insecticidal effects (mortality), common cutworm third-instar larvae” value with common cutworm (100 ppm) amounted to 30; in the data set with common cutworm (500 ppm) it was 100. Further, the mortality at 50 ppm in the data set with rice leaf bug is not below 80%.
